{"source": "patent US20230301933A1", "about": "(priority 2020, published 2023)", "key": {"[1]": {"test_system": "Early Stage CoViD-19", "source_text": "Subject 2, suffering early stage CoViD-19. Former professional sportsman (soccer), doesn't smoke, no alcohol, weight 75 kg. Pre-treatment history. […] Came to GP for treatment.\nTreatment for four consecutive days of four subcutaneous injections as described for patient 1. First day of treatment is set as ‘Day 1’."}, "[2]": {"procedure": "In an particularly attractive embodiment, the phenol is injected subcutaneously, i.e. in the soft tissue below the skin with a depth of up to 0.5-2.0 cm.\nIn another attractive embodiment, the phenol is administered intravenously."}, "[3]": {"details": "insulin comprising 0.2 to 1.0 mg per dose phenol as preservative; cited from earlier work"}, "[4]": {"test_system": "Critical Stage Covid-19", "procedure": "Treated with concentration phenol 0.01% in 60 ml, drip infusion 20 minutes, once daily.\nDay 6 lowered dose to 0.01% concentration in 30 ml. Stopped treatment after treatment day 9."}, "[5]": {"test_system": "MRSA Lung Infection", "procedure": "Person, 88 kg, dyspnoea, cough, chest pain and fever, under urine catheter. Has used different antibiotic before and after operation prostate cancer and by lung infection.\nPhenol reduce to 0.02% 15 ml. duration 10 minutes for 5 more days."}, "[6]": {"test_system": "Flu Pneumonia", "details": "human, in vivo"}, "[7]": {"test_system": "Virus Induced Pneumonia", "source_text": "Subject 1 was a person, weight 85 kg, pre-condition asthma. […] Pre-treatment history:\nSelf-treatment with Ventolin and paracetamol. […] Sixth day. […] Patient thinks that the problem is serious, and contacts GP.\nTreatment started for 9 consecutive days by four subcutaneous injections of a 0.06 w/w % phenol in physiological saline daily administered in: 1 and 2) the posterior margin of the sternocleidomastoid muscle on the level of the larynx knot at both left and right side of the body, each about 1 cm deep; 3) the middle of the upper socket of the sternum about 0.5 cm deep, and 4) the depression below the spinous process of the 7th cervical vertebra, about 0.5 cm deep. First day of treatment is set as ‘Day 1’"}, "[8]": {"details": "Day 1 (first day of treatment), four s.c. injections 0.06 w/w % phenol daily"}, "[9]": {"details": "at end of treatment (3 days normal body temperature), phenol 0.01% drip infusion once daily"}, "[10]": {"details": "day1, phenol 0.02% (in 30 ml), drip 15 minutes"}, "[11]": {"details": "day2, phenol 0.02% (in 30 ml), drip 15 minutes"}, "[12]": {"details": "day3, phenol 0.02% (in 30 ml), drip 15 minutes"}, "[13]": {"details": "day4, phenol 0.02% (in 30 ml), drip 15 minutes"}, "[14]": {"details": "day5, phenol 0.02% (in 30 ml), drip 15 minutes"}, "[15]": {"details": "day6, phenol 0.02% (in 15 ml), drip 10 minutes"}, "[16]": {"details": "day7, phenol 0.02% (in 15 ml), drip 10 minutes"}, "[17]": {"details": "day8, phenol 0.02% (in 15 ml), drip 10 minutes"}, "[18]": {"details": "day9, phenol 0.02% (in 15 ml), drip 10 minutes"}}, "note": "Where two headings read alike, the source gives them in different places.", "data": [{"smiles": "Oc1ccccc1", "note": "[phenol]", "values": [{"measurement": "Temperature", "setting": "[1]; [8]", "result": 38.4, "unit": "°C"}, {"measurement": "Temperature", "setting": "[1]; Day 2", "result": 37.2, "unit": "°C"}, {"measurement": "Temperature", "setting": "[1]; Day 3", "result": 36.8, "unit": "°C"}, {"measurement": "Temperature", "setting": "[1]; Day 4", "result": "normal"}, {"measurement": "Temperature", "setting": "[1]; Day 5", "result": "normal"}, {"measurement": "Duration of slight headache after treatment", "setting": "[1]; after first treatment", "result": "about four"}, {"measurement": "Time the slight cough remained", "setting": "[1]; counted from Day 5, then fully gone", "result": 5, "unit": "days"}, {"measurement": "Side effects", "setting": "[1]; four consecutive days of s.c. injections", "result": "No other side effects noted"}, {"measurement": "Injection location reaction", "setting": "[1]; s.c. injection", "result": "slight pain at injection"}, {"measurement": "Duration of immediate effect", "setting": "[2]; intravenous administration", "result": "7 to 14", "unit": "days"}, {"measurement": "Time phenol may remain in the body", "setting": "[2]; intravenous administration", "result": "about 24 hours"}, {"measurement": "Duration of immediate effect", "setting": "[2]; subcutaneous injection", "result": "about 7 days"}, {"measurement": "Time phenol may remain in the body", "setting": "[2]; subcutaneous injection", "result": "about 24 hours"}, {"measurement": "Accumulation of phenol in the body by daily use", "setting": "[3]", "result": "no significant accumulation"}, {"measurement": "R/R", "setting": "[4]; [9]", "result": 20}, {"measurement": "SPO2", "setting": "[4]; [9]", "result": 97, "unit": "%"}, {"measurement": "R/R", "setting": "[4]; [10]", "result": 41}, {"measurement": "SpO2", "setting": "[4]; [10]", "result": 91, "unit": "%"}, {"measurement": "body temperature", "setting": "[4]; [10]", "result": 37.6, "unit": "°C"}, {"measurement": "R/R", "setting": "[4]; [11]", "result": 32}, {"measurement": "SpO2", "setting": "[4]; [11]", "result": 93, "unit": "%"}, {"measurement": "body temperature", "setting": "[4]; [11]", "result": 38.6, "unit": "°C"}, {"measurement": "R/R", "setting": "[4]; [12]", "result": 27}, {"measurement": "SpO2", "setting": "[4]; [12]", "result": 94, "unit": "%"}, {"measurement": "body temperature", "setting": "[4]; [12]", "result": 38.5, "unit": "°C"}, {"measurement": "R/R", "setting": "[4]; [13]", "result": 23}, {"measurement": "SpO2", "setting": "[4]; [13]", "result": 96, "unit": "%"}, {"measurement": "body temperature", "setting": "[4]; [13]", "result": 38.0, "unit": "°C"}, {"measurement": "R/R", "setting": "[4]; [14]", "result": 22}, {"measurement": "SpO2", "setting": "[4]; [14]", "result": 96, "unit": "%"}, {"measurement": "body temperature", "setting": "[4]; [14]", "result": 37.4, "unit": "°C"}, {"measurement": "day 6 evaluation: breathing", "setting": "[4]; day 6", "result": "day 6 evaluation patient breaths normally, still stress, coughing, feels good, day 6 started walking (with infusion)"}, {"measurement": "temperature, R/R, SpO2", "setting": "[4]; day 6", "result": "normal"}, {"measurement": "R/R", "setting": "[4]; [15]", "result": 20}, {"measurement": "SpO2", "setting": "[4]; [15]", "result": 97, "unit": "%"}, {"measurement": "body temperature", "setting": "[4]; [15]", "result": 37.0, "unit": "°C"}, {"measurement": "R/R", "setting": "[4]; [16]", "result": 20}, {"measurement": "SpO2", "setting": "[4]; [16]", "result": 97, "unit": "%"}, {"measurement": "body temperature", "setting": "[4]; [16]", "result": 36.8, "unit": "°C"}, {"measurement": "R/R", "setting": "[4]; [17]", "result": 20}, {"measurement": "SpO2", "setting": "[4]; [17]", "result": 97, "unit": "%"}, {"measurement": "body temperature", "setting": "[4]; [17]", "result": 36.9, "unit": "°C"}, {"measurement": "day 9 evaluation: body temperature", "setting": "[4]; day 9", "result": "day 9 evaluation patients three days normal body temperature."}, {"measurement": "R/R", "setting": "[4]; [18]", "result": 18}, {"measurement": "SpO2", "setting": "[4]; [18]", "result": 97, "unit": "%"}, {"measurement": "body temperature", "setting": "[4]; [18]", "result": 36.8, "unit": "°C"}, {"measurement": "Time after start of treatment at which improvement of R/R and SpO2 was measured", "setting": "[4]; drip infusion once daily", "result": 6, "unit": "h"}, {"measurement": "X-lung: pneumonia", "setting": "[5]; Day 18th", "result": "almost recovered"}, {"measurement": "Fever (temperature), reduced from 38.0", "setting": "[5]; after 0.02% phenol 30 ml infusion once per day for 3 days", "result": 37.4, "unit": "°C"}, {"measurement": "Temperature", "setting": "[5]; during 0.02% phenol 15 ml, 10 minutes, for 5 more days", "result": "under 37 °C"}, {"measurement": "Breathing", "setting": "[6]", "result": "breaths quietly"}, {"measurement": "Patient outcome", "setting": "[6]", "result": "physical recovered with some cough"}, {"measurement": "X-lung infiltrate", "setting": "[6]", "result": "much improved"}, {"measurement": "Fever (temperature)", "setting": "[6]; iv", "result": "36.8-37.5 °C"}, {"measurement": "Heartbeat", "setting": "[6]; iv", "result": "about 90 per minute"}, {"measurement": "Side effects after injection", "setting": "[7]; 9 consecutive days of s.c. injections", "result": "slight headache, no other side effect after injection"}, {"measurement": "Temperature", "setting": "[7]; [8]", "result": 38.1, "unit": "°C"}, {"measurement": "Short breath", "setting": "[7]; Day 2", "result": "Limited feeling of short breath and asthma"}, {"measurement": "Temperature", "setting": "[7]; Day 2, four s.c. injections 0.06 w/w % phenol daily", "result": 37.6, "unit": "°C"}, {"measurement": "Short breath", "setting": "[7]; Day 3", "result": "Less short breath"}, {"measurement": "Temperature", "setting": "[7]; Day 3", "result": 37.4, "unit": "°C"}, {"measurement": "Short breath", "setting": "[7]; Day 4", "result": "Short breath much better"}, {"measurement": "Temperature", "setting": "[7]; Day 4", "result": 37.4, "unit": "°C"}, {"measurement": "Short breath", "setting": "[7]; Day 5", "result": "Short breath slightly better"}, {"measurement": "Temperature", "setting": "[7]; Day 5", "result": 37.4, "unit": "°C"}, {"measurement": "Short breath", "setting": "[7]; Day 6", "result": "No more short breath"}, {"measurement": "Temperature", "setting": "[7]; Day 6", "result": 37.0, "unit": "°C"}, {"measurement": "Breathing", "setting": "[7]; Day 7", "result": "Breathing normal"}, {"measurement": "Fever", "setting": "[7]; Day 7", "result": "No fever"}, {"measurement": "Fever", "setting": "[7]; Day 8", "result": "No fever"}]}]}
